Test results as given in ChEMBL document CHEMBL3045041, “Synthesis of novel aryl(4-substituted pyridin-3-yl)methyl carbamates and their herbicidal activity” (J Pestic Sci, 2012).

How the values were obtained:
Oryza sativa = assay: Phytotoxicity against Oryza sativa cv. Kinuhikari (rice) planted at 3 cm depth measured after 20 to 25 days; assay type: organism-based; settings: in vivo
Echinochloa oryzicola [1] = assay: Herbicidal activity against Echinochloa oryzicola under greenhouse condition compound treated at emergence stage measured after 14 to 20 days; assay type: functional
[2] = test system: Schoenoplectiella juncoides; assay: Herbicidal activity against Schoenoplectiella juncoides under greenhouse condition compound treated at 0.5 leaf stage measured after 14 to 20 days; assay type: functional
Echinochloa oryzicola [3] = assay: Herbicidal activity against Echinochloa oryzicola under greenhouse condition compound treated at 2.5 leaf stage measured after 14 to 20 days; assay type: functional

SMILES	ED20 (Oryza sativa) [gAi/ha]	ED80 (Echinochloa oryzicola [1]) [gAi/ha]	ED80 [2] [gAi/ha]	ED80 (Echinochloa oryzicola [3]) [gAi/ha]
CN(C)C(=O)OC(c1cnccc1C(F)(F)F)c1ccnc2ccccc12 (centres undefined)	2000	125	500	–
CN(C)C(=O)OC(c1cnccc1C(F)(F)F)c1ccc2c3c(cccc13)CC2 (centres undefined)	> 2000	500	>1000	>500
CN(C)C(=O)OC(c1cnccc1C(F)(F)F)c1c(Cl)ccc2c1OCO2 (centres undefined)	> 2000	63	500	500
CN(C)C(=O)OC(c1cnccc1C(F)(F)F)c1cccc2c1OCO2 (centres undefined)	500	63	250	–
